target: Sigma 2 receptor; experiment: Inhibition of [3H]-DTG binding to Sigma opioid receptor type 2

Row | Structure (SMILES) | Ki [nM]
1 | CC1(C)C2CC[C@]1(C)CN(CCCC1CCCCC1)C2 | 0.56
2 | CC1(C)C2CC[C@]1(C)CN(CCC1CCCCC1)C2 | 0.28
3 | CC1(C)C2CC[C@@]1(C)CN(CC1CCCCC1)C2 | 3.54
4 | CC1(C)C2CC[C@]1(C)CN(CCC1C3CC4CC(C3)CC1C4)C2 (some centres not stated) | 0.77
5 | CC1(C)C2CC[C@]1(C)CN(CCC1CCCC1)C2 | 0.7
6 | CC1(C)C2CC[C@]1(C)CN(CCC1CCCCCC1)C2 | 0.25
7 | CC1(C)C2CC[C@]1(C)CN(CCC1CCCCCCC1)C2 | 0.33
8 | CC1(C)C2CC[C@]1(C)CN(CCCCC1CCCCC1)C2 | 6.79
9 | CC1(C)C2CC[C@@]1(C)CN(CCC1CCCCC1)C2 | 0.23
10 | C=CCN1CC[C@@]2(C)c3cc(O)ccc3C[C@H]1[C@H]2C (racemic) | 14200
11 | CC1(C)C2CC[C@]1(C)CN(CC1CCCCC1)C2 | 3.14
12 | CC1(C)C2CC[C@]1(C)CN(C1CCCCC1)C2 | 1.1

Source: ChEMBL document CHEMBL1130524, “An aromatic moiety is not essential for pharmacophore binding to sigma binding sites: Synthesis of N-alkylazacycloheptane derivatives as potent sigma ligands” (Bioorg Med Chem Lett, 1997)
